Results from patent publication US20030176406A1, “Polycaprolactone-b-poly (ethylene oxide) copolymer non-cross-linked micelles as a delivery vehicle for steroid” (McGill University, priority 1999, published 2003).

Experiment: Kinetic release of DHT from PCL20-b-PEO44 micelles (dialysis method, PBS pH 7.4, 37° C.)
Format: physicochemical
Details: control solution (drug alone)
Method: To the dried micelles, 100 μL of phosphate buffer solution, PBS (pH 7.4) was added. To ensure that the micelles were well dispersed in PBS, the solutions were vortexed. The dispersed micelles were left to stand in a 37° C. warm room for 30 minutes. Once the micelle solution had reached 37° C., it was placed in a dialysis bag which was immersed in a large vial containing warmed PBS (10 mL PBS, pH=7.4, 37° C.). […] The aliquot was dispersed in 4 mL of scintillation cocktail and then counted. Following the removal of each 100 uL aliquot, a 100 uL aliquot of fresh PBS was added.
The dialysis method was used to study the release of DHT from two micelle solutions which differed in the amount of DHT that they contained. The concentration of the solutions studied were 8 mM and 40 mM.

C[C@]12CCC(=O)C[C@@H]1CC[C@@H]1[C@@H]2CC[C@]2(C)[C@@H](O)CC[C@@H]12 [DHT, dihydrotestosterone]
time to complete release: 3 h
